Reference: US8609661B2, “Pyrimido-pyrrolo-quinoxalinedione inhibitors of cystic fibrosis transmembrane conductance regulator protein and uses therefor” (The Regents of the University of California, priority 2009, dated 2013)
Read-outs that look alike come from different tables or passages of the source.

Target: T1, human wildtype CFTR (Homo sapiens, UniProt P13569)
T1 construct: expressed in transfected cells; host or cells: Fischer rat thyroid (FRT) cells
Assay: Fluorescence platereader assay of CFTR-mediated iodide influx (YFP quenching) in FRT cells
Assay type: cell-based
Conditions: for inhibition at 5 µM / inhibition at 25 µM: FRT; for IC50: apparent IC50 from concentration-inhibition data, fluorescence platereader assay
Method: A. Cell lines and compounds—Fischer rat thyroid (FRT) cells co-expressing human wildtype CFTR and the halide indicator YFP-H148Q/1152L were generated as described (see, e.g., Ma et al., J. Clin. Invest. 110:1651-1658 (2002)). Cells were plated in 96-well black-walled microplates (Corning Costar) at a density of 20,000 cells per well in Coon's modified F12 medium supplemented with 5% fetal calf serum, 2 mM L-glutamine, 100 U/mL penicillin, and 100 μg/ml streptomycin. Assays were performed at 48 h after plating the cells when the cells were just confluent. For some experiments, measurements were made using T84 human intestinal epithelial cells and for other experiments, measurements were obtained using primary cultures of human bronchial epithelial cells, which were obtained and grown essentially as previously described (see, e.g., 3 and 27).
B. Compound Screening—Assays were performed using an automated screening platform (Beckman) equipped with FLUOStar fluorescence platereaders (BMG Lab Technologies, Offenburg, Germany) as described (see Ma et al., supra). Each well of a 96-well plate containing FRT cells was washed 3 times in PBS (300 μL/wash), leaving 50 μL PBS. […] After 15 min, 96-well plates were transferred to a plate reader for fluorescence assay. Each well was assayed individually for CFTR-mediated iodide influx by recording fluorescence continuously (200 ms per point) for 2 s (baseline) and then for 10 s after rapid addition of 160 μL of isosmolar PBS in which 137 mM chloride was replaced by iodide. The initial rate of iodide influx was computed from fluorescence data by non-linear regression.
Collections of synthetic and natural compounds were screened according to the screening procedures described in Example 2. A cell-based fluorescence assay was used in which CFTR inhibitors were identified by reduced iodide influx in FRT cells co-expressing human CFTR and a YFP halide sensor. CFTR was maximally activated by a mixture of agonists having different activating mechanisms. Inhibition of iodide influx was observed as reduced YFP fluorescence quenching in response to rapid iodide addition to each well of 96-well plates. […]

[1] = read-out: % inhibition at 25/5 μM (5 μM value), Table 1, 5 μM compound
[2] = read-out: % inhibition at 25/5 μM (25 μM value), Table 1, 25 μM compound
[3] = Table 2, screening, 5 μM, read-out: % Inhibition at 5 μM
[4] = Table 2, screening, 25 μM, read-out: % Inhibition at 25 μM

T1 sequence (P13569 whole entry): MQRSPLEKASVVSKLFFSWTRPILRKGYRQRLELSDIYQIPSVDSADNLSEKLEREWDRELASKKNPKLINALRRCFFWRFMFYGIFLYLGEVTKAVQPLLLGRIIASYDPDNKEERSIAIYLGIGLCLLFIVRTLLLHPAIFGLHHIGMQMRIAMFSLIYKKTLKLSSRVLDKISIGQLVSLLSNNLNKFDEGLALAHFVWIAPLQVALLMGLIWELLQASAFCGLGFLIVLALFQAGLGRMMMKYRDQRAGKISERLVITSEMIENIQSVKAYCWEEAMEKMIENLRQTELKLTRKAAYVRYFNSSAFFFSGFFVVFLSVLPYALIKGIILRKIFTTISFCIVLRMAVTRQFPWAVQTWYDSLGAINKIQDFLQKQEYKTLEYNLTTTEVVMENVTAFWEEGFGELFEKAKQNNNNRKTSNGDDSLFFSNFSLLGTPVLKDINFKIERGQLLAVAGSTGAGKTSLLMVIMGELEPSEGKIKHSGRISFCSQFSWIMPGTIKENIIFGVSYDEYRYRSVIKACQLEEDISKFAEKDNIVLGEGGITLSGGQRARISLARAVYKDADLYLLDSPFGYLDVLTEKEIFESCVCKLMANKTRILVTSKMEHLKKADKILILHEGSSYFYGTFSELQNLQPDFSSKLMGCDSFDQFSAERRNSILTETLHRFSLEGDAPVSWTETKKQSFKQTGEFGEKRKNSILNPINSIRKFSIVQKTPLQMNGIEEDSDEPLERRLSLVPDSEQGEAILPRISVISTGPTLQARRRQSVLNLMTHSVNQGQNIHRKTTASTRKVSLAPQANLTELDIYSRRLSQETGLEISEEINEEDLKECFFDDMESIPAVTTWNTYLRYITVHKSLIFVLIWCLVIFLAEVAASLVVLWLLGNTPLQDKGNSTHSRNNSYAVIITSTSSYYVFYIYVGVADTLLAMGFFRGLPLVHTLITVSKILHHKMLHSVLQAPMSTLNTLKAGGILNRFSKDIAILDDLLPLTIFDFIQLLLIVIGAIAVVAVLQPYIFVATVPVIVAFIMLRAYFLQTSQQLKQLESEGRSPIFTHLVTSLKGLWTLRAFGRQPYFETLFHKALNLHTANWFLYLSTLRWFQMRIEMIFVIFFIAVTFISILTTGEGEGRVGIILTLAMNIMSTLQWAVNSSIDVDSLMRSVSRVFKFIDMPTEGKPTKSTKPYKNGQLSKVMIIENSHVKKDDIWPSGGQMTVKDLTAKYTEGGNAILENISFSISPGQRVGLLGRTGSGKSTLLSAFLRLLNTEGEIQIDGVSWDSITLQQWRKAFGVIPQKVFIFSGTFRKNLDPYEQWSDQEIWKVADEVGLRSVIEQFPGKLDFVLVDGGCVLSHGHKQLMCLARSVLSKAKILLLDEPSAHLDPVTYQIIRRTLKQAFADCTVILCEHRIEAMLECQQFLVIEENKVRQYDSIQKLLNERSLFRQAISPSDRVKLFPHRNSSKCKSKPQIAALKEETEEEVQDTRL

SMILES	inhibition at 5 µM [1]	inhibition at 25 µM [2]	inhibition at 5 µM [3]	inhibition at 25 µM [4]	IC50
Cn1c(=O)c2c(-c3ccccc3)n3c(c2n(C)c1=O)C(c1cccc([N+](=O)[O-])c1)Nc1ccccc1-3 (centres unmarked) [PPQ-202, 7,9-Dimethyl-11-phenyl-6-(3-nitrophenyl)-5,6-dihydro-pyrimido[4′,5′-3,4]pyrrolo[1,2-a]quinoxaline-8,10-(7H,9H)-dione]	60%	90%	60%	90%	1200 nM
Cc1cc2c(cc1C)-n1c(-c3ccccc3)c3c(=O)n(C)c(=O)n(C)c3c1C(c1ccc(O)cc1)N2 (centres unmarked) [PPQ-203, 2,3,7,9-Tetramethyl-11-phenyl-6-(4-hydroxyphenyl)-5,6-dihydro-pyrimido[4′,5′-3,4]pyrrolo[1,2-a]quinoxaline-8,10-(7H,9H)-dione]	80%	–	80%	> 95%	1500 nM
COc1cccc(C2Nc3ccccc3-n3c(-c4ccccc4)c4c(=O)n(C)c(=O)n(C)c4c32)c1 (centres unmarked) [PPQ-204, 7,9-Dimethyl-11-phenyl-6-(3-methoxyphenyl)-5,6-dihydro-pyrimido[4′,5′-3,4]pyrrolo[1,2-a]quinoxaline-8,10-(7H,9H)-dione]	63%	86%	63%	86%	1700 nM
Cn1c(=O)c2c(-c3ccccc3)n3c(c2n(C)c1=O)C(c1ccccc1F)Nc1ccccc1-3 (centres unmarked) [PPQ-205, 7,9-Dimethyl-11-phenyl-6-(2-fluorophenyl)-5,6-dihydro-pyrimido[4′,5′-3,4]pyrrolo[1,2-a]quinoxaline-8,10-(7H,9H)-dione]	61%	81%	61%	81%	2000 nM
Cn1c(=O)c2c(-c3ccccc3)n3c(c2n(C)c1=O)C(c1ccccc1)Nc1ccccc1-3 (centres unmarked) [PPQ-206, 7,9-Dimethyl-11-phenyl-6-phenyl-5,6-dihydro-pyrimido[4′,5′-3,4]pyrrolo[1,2-a]quinoxaline-8,10-(7H,9H)-dione]	–	–	–	–	2500 nM
Cn1c(=O)c2c(-c3ccccc3)n3c(c2n(C)c1=O)C(c1ccc(O)cc1)Nc1ccccc1-3 (centres unmarked) [PPQ-207, 7,9-Dimethyl-11-phenyl-6-(4-hydroxyphenyl)-5,6-dihydro-pyrimido[4′,5′-3,4]pyrrolo[1,2-a]quinoxaline-8,10-(7H,9H)-dione]	64%	86%	64%	86%	4500 nM
COc1cc(O)ccc1C1Nc2ccccc2-n2c(-c3ccccc3)c3c(=O)n(C)c(=O)n(C)c3c21 (centres unmarked) [PPQ-208, 7,9-Dimethyl-11-phenyl-6-(2-methoxy-4-hydroxyphenyl)-5,6-dihydro-pyrimido[4′,5′-3,4]pyrrolo[1,2-a]quinoxaline-8,10-(7H,9H)-dione]	–	56%	13%	56%	100000 nM
Cc1cccc(-c2c3c(=O)n(C)c(=O)n(C)c3c3n2-c2ccccc2NC3c2ccc(O)cc2)c1 (centres unmarked) [PPQ-209, 7,9-Dimethyl-11-(3-methylphenyl)-6-(4-hydroxyphenyl)-5,6-dihydro-pyrimido[4′,5′-3,4]pyrrolo[1,2-a]quinoxaline-8,10-(7H,9H)-dione]	71%	94%	71%	94%	1700 nM
COc1cccc(C2Nc3ccccc3-n3c(-c4cccc(C)c4)c4c(=O)n(C)c(=O)n(C)c4c32)c1 (centres unmarked) [PPQ-210, 7,9-Dimethyl-11-(3-methylphenyl)-6-(3-methoxyphenyl)-5,6-dihydro-pyrimido[4′,5′-3,4]pyrrolo[1,2-a]quinoxaline-8,10-(7H,9H)-dione]	73%	–	73%	> 95%	1700 nM
COc1cccc(C2Nc3ccccc3-n3c(-c4ccccc4F)c4c(=O)n(C)c(=O)n(C)c4c32)c1 (centres unmarked) [PPQ-211, 7,9-Dimethyl-11-(2-fluorophenyl)-6-(3-methoxyphenyl)-5,6-dihydro-pyrimido[4′,5′-3,4]pyrrolo[1,2-a]quinoxaline-8,10-(7H,9H)-dione]	62%	–	62%	> 95%	2000 nM
Cc1cccc(-c2c3c(=O)n(C)c(=O)n(C)c3c3n2-c2ccccc2NC3c2cccc([N+](=O)[O-])c2F)c1 (centres unmarked) [PPQ-212, 7,9-Dimethyl-11-(3-methylphenyl)-6-(2-fluoro-3-nitrophenyl)-5,6-dihydro-pyrimido[4′,5′-3,4]pyrrolo[1,2-a]quinoxaline-8,10-(7H,9H)-dione]	–	–	–	–	2000 nM
Cc1ccccc1-c1c2c(=O)n(C)c(=O)n(C)c2c2n1-c1ccccc1NC2c1cccc([N+](=O)[O-])c1 (centres unmarked) [PPQ-213, 7,9-Dimethyl-11-(2-methylphenyl)-6-(3-nitrophenyl)-5,6-dihydro-pyrimido[4′,5′-3,4]pyrrolo[1,2-a]quinoxaline-8,10-(7H,9H)-dione]	64%	96%	64%	96%	2000 nM
Cn1c(=O)c2c(-c3ccccc3F)n3c(c2n(C)c1=O)C(c1cccc(Cl)c1)Nc1ccccc1-3 (centres unmarked) [PPQ-214, 7,9-Dimethyl-11-(2-fluorophenyl)-6-(3-chlorophenyl)-5,6-dihydro-pyrimido[4′,5′-3,4]pyrrolo[1,2-a]quinoxaline-8,10-(7H,9H)-dione]	70%	–	70%	> 95%	2500 nM
Cc1cccc(-c2c3c(=O)n(C)c(=O)n(C)c3c3n2-c2ccccc2NC3c2ccccc2F)c1 (centres unmarked) [PPQ-215, 7,9-Dimethyl-11-(3-methylphenyl)-6-(2-fluorophenyl)-5,6-dihydro-pyrimido[4′,5′-3,4]pyrrolo[1,2-a]quinoxaline-8,10-(7H,9H)-dione]	67%	80%	67%	80%	2500 nM
COc1cccc(C2Nc3ccccc3-n3c(-c4ccccc4C)c4c(=O)n(C)c(=O)n(C)c4c32)c1 (centres unmarked) [PPQ-216, 7,9-Dimethyl-11-(2-methylphenyl)-6-(3-methoxyphenyl)-5,6-dihydro-pyrimido[4′,5′-3,4]pyrrolo[1,2-a]quinoxaline-8,10-(7H,9H)-dione]	62%	–	62%	> 95%	3000 nM
Cc1cccc(C2Nc3ccccc3-n3c(-c4ccccc4C)c4c(=O)n(C)c(=O)n(C)c4c32)c1 (centres unmarked) [PPQ-217, 7,9-Dimethyl-11-(2-methylphenyl)-6-(3-methylphenyl)-5,6-dihydro-pyrimido[4′,5′-3,4]pyrrolo[1,2-a]quinoxaline-8,10-(7H,9H)-dione]	46%	–	46%	> 95%	3000 nM
Cc1ccccc1-c1c2c(=O)n(C)c(=O)n(C)c2c2n1-c1ccccc1NC2c1ccccc1 (centres unmarked) [PPQ-218, 7,9-Dimethyl-11-(2-methylphenyl)-6-phenyl-5,6-dihydro-pyrimido[4′,5′-3,4]pyrrolo[1,2-a]quinoxaline-8,10-(7H,9H)-dione]	–	–	41%	94%	5000 nM
